The structures appear in SMILES notation.

Drawing on patent US7947852B2, “Naphthalene compounds, a process for their preparation and pharmaceutical compositions containing them” (Les Laboratoires Servier, priority 2007, dated 2011), this text covers Ki for one compound.

In one assay the target is MT1 receptor (Homo sapiens, UniProt P48039). Put plainly: Melatonin MT1 receptor binding study. Particulars: 2-[125I]-iodomelatonin radioligand, competitive binding. The procedure: (§1) The MT1 or MT2 receptor binding experiments are carried out using 2-[^125I]-iodomelatonin as reference radioligand. The radioactivity retained is determined using a liquid scintillation counter.
(§2) Competitive binding experiments are then carried out in triplicate using the various test compounds. A range of different concentrations is tested for each compound. The results enable the binding affinities of the compounds tested (Ki) to be determined.

A further assay concerns the target T1, MT2 receptor (Homo sapiens, UniProt P49286).
T1 sequence (P49286 1-362): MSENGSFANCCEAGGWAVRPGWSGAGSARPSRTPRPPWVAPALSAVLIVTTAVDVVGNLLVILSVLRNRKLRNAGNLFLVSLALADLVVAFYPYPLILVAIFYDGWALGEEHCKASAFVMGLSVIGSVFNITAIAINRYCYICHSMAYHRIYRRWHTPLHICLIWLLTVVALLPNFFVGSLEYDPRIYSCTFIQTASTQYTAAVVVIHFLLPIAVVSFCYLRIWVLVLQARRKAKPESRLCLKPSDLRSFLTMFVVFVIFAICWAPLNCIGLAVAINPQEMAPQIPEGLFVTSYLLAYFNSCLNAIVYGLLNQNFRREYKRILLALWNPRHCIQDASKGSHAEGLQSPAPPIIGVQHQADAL
Put plainly: Melatonin MT2 receptor binding study. The settings on record: 2-[125I]-iodomelatonin radioligand, competitive binding. The procedure:
as §1, §2

MT1 receptor, sequence (P48039 whole entry): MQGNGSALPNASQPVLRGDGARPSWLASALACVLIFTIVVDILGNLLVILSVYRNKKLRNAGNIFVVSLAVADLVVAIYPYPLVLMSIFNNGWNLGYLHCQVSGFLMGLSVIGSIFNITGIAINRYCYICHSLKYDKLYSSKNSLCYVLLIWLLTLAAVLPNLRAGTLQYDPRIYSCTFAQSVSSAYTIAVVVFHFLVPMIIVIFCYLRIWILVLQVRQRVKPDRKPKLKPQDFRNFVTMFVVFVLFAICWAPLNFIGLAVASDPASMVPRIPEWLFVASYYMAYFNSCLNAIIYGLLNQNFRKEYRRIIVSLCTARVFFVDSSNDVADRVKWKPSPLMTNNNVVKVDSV

In general, Ki refers to the equilibrium dissociation constant of an inhibitor or competing ligand from its target. A higher Ki goes with weaker binding. Take `COc1ccc2cccc(/C(CNC(C)=O)=N\O)c2c1` [Example 2, N-[(2E)-2-(Hydroxyimino)-2-(7-methoxy-1-naphthyl)ethyl]acetamide]: the Ki on MT1 receptor was 7 nM; at MT2 receptor, 0.8 nM.
